Measured values from patent US10060934B2, “Methods for screening patients for resistance to angioinhibition, treatment and prophylaxis thereof” (NANOPHARMACEUTICALS LLC, priority 2013, dated 2018).

Experiments:
[1] = system: chick chorioallantoic membrane (CAM); experiment: Chick chorioallantoic membrane (CAM) angiogenesis assay; format: in vivo; details: pro-angiogenic factor alone
Description: Examples of the CAM assay methodology may include the step of providing chick embryos. In some embodiments, the chick embryos may be approximately 10 days old. The chick embryos may be incubated at approximately 37° C. with approximately 55% relative humidity. A hypodermic needle may be used to make a small hole in the shell concealing an air sac, and a second hole may be made on the broad side of the egg, directly over an avascular portion of the embryonic membrane. A false air sac may be created beneath the second hole by the application of negative pressure at the first hole, causing the CAM to separate from the shell. A window, approximately 1.0 cm^2, in size may be cut in the shell over the CAM with a small-crafts grinding wheel, allowing direct access to the underlying CAM. In some embodiments, a pro-angiogenic agent may be provided to induce new blood vessel branches on the CAM of 10-day-old embryos. In the exemplary embodiment, the pro-angiogenic agents may be the endogenous non-peptide pro-angiogenic hormones supplied in the patient's blood sample. The patient's blood sample may subsequently be introduced into the xenograft having a vasculature system in the CAM. The pro-angiogenic agent, the blood or serum sample of the patient along with one or more anti-angiogenic agents may be applied to a sterile disk and followed by allowing the disks to dry. In some embodiments of the CAM assay, Sterile disks of No. 1 filter paper (Whatman International) may be pretreated with approximately 3 mg/mL cortisone acetate and 1 mmol/L of the patient's blood or serum, along with one or more anti-angiogenic agents and air dried under sterile conditions. The disks may then be suspended in phosphate buffered saline (PBS) and placed on growing CAMs. At approximately the 24 hour mark, a mitogen-activated protein kinase (MAPK) cascade inhibitor such as PD 98059 may also be added to CAMs topically by means of the filter disks. Exemplary embodiments having one or more anti-angiogenic agent, may include two, three, four, five or more anti-angiogenic agents, including at least one thyroid hormone antagonist such as tetrac, triac, or conjugated tetrac or triac. After incubation at 37° C. with 55% relative humidity for 3 days, the CAM tissue directly beneath each filter disk may be resected and treated. The tissues may subsequently be washed approximately three times with PBS, placed in 35-mm Petri dishes (Nalge Nunc), and examined under a stereomicroscope at approximately 50× magnification or more. Digital images of CAM sections exposed to filters may be collected and quantified using a 3-charge-coupled device color video camera system and analyzed with Image-Pro software (Media Cybernetics) or equivalent software. Embodiments of the CAM system may not only index tumor-related angiogenesis, but permits spherical tumor growth of the implanted cells. Spherical growth may be important to the development of a hypoxic cell population that resemble tumor behavior clinically. Aggressive xenograft behavior in the CAM model may include metastasis to the chick embryo in the system.

integrin αvβ3 = integrin αvβ3 (Homo sapiens, UniProt P05106+P06756); details: cited from earlier work
[2] = system: basic fibroblast growth factor (bFGF, FGF2), vascular endothelial growth factor (VEGF); details: in the absence of thyroid hormone; cited from earlier work
glioma cells = details: in vitro; cited from earlier work
[3] = system: human breast cancer cells; details: in vitro; cited from earlier work

integrin αvβ3, sequence (P06756 31-889 limits assumed): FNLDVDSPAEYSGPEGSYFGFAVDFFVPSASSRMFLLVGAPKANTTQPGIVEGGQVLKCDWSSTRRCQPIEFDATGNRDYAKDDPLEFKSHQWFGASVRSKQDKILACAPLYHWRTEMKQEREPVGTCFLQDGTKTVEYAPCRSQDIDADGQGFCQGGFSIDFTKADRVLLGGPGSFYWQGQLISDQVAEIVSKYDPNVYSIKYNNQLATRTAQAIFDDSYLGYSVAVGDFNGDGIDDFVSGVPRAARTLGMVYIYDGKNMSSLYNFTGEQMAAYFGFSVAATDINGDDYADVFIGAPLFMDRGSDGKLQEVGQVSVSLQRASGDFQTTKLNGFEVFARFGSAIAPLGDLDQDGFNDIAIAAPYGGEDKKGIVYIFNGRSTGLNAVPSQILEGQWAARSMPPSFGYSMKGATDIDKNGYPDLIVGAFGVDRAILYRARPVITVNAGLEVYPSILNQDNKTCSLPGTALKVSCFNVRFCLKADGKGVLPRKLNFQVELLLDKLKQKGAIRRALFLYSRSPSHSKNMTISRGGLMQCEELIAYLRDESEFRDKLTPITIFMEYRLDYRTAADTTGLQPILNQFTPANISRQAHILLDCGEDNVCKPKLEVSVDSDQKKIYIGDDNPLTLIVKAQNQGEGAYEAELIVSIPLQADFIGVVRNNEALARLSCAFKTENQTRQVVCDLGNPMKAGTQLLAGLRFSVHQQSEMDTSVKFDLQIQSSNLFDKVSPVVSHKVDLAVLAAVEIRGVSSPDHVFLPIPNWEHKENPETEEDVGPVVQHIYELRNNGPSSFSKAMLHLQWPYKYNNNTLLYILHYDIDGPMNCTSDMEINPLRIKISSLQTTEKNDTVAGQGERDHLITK
integrin αvβ3, sequence (P06756 891-1048 partner limits assumed): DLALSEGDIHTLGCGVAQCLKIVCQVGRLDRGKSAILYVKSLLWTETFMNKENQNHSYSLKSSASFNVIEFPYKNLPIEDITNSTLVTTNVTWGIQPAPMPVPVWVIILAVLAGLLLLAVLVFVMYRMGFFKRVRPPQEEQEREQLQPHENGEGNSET
integrin αvβ3, sequence (P05106 27-788): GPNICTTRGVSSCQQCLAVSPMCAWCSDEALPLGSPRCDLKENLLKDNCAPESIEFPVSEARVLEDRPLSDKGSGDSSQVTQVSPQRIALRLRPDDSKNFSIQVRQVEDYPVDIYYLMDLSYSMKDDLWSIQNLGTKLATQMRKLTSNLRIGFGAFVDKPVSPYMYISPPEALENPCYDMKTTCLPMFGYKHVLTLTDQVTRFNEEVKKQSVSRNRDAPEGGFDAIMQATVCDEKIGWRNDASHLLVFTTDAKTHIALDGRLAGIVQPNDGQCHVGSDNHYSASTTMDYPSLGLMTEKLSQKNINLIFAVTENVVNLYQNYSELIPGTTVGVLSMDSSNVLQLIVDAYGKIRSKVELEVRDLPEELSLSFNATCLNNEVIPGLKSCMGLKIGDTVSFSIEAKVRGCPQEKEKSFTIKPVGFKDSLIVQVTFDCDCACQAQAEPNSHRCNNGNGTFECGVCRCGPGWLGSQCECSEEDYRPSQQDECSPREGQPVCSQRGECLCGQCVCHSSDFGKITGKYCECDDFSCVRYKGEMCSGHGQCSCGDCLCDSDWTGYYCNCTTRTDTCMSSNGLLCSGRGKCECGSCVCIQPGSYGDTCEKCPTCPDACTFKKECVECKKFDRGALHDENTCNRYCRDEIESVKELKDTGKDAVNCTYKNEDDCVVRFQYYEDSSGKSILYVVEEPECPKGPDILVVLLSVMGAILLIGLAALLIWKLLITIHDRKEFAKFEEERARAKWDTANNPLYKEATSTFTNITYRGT

| Molecule | Branch points ± SEM [1] | other results |
| --- | --- | --- |
| N[C@@H](Cc1cc(I)c(Oc2ccc(O)c(I)c2)c(I)c1)C(=O)O [T3, 3,5,3′-triiodo-L-thyronine] | 186.8 ± 16.4 | – |
| N[C@@H](Cc1cc(I)c(Oc2cc(I)c(O)c(I)c2)c(I)c1)C(=O)O [T4, L-thyroxine] | 119.2 ± 15.6 | – |
| Angiotensin II (DRVYIHPF; Angiotensin-2; UniProt P01019 25-32, looked up) [small molecule that supports neovascularization; pro-angiogenic factor in the CAM assay] | 103.2 ± 25.9 | – |
| Tetraiodothyroacetic acid [tetrac] | – | agonist activity at the integrin (integrin αvβ3): no agonist activity; binding of T4 and T3 to the integrin (integrin αvβ3): inhibits binding; angiogenic activity of bFGF, VEGF and other pro-angiogenic factors [2]: blocks the angiogenic activity; growth of glioma cells (glioma cells): arrest growth; growth of human breast cancer cells [3]: arrest growth |
| VEGF | 182.4 ± 8.4 | – |
| bFGF: basic fibroblast growth factor | 184.6 ± 18.5 | – |
